The values below come from patent US20250382344A1, “Soluble GLP1/GIP/NPY2 Receptor Triple Agonists” (Boehringer Ingelheim International GmH, priority 2024, published 2025).

One data set has as its target T1, hGLP1R (Homo sapiens, UniProt P43220).
T1 construct: expressed in transfected cells; host or cells: HEK-293 CRE-luciferase reporter cells
In words: hGLP1R CreLuc assay in 0.5% and 100% plasma (HEK-293 CRE-luciferase reporter cells). The data set is classed as cell-based. The note with it: 0.5% human plasma, HEK-293 reporter cells, read-out: hGLP1R 0.5% hP. Background: A reporter such as luciferase makes a cellular process visible.

Data set [1] in a line: Solubility in 0.1 M phosphate buffer at pH 7. Type of data set: physicochemical. The note with it: 0.1 M phosphate buffer at pH 7, 10 mg/mL final peptide concentration, shaking 2 hours at room temperature, peptides as TFA-salts; measured sample pH 6.5-7.0.
The target in another data set is T2, hNPY2R (Homo sapiens, UniProt P49146).
T2 construct: expressed in transfected cells; host or cells: HEK-293 CRE-luciferase reporter cells
T2 sequence (P49146 1-381): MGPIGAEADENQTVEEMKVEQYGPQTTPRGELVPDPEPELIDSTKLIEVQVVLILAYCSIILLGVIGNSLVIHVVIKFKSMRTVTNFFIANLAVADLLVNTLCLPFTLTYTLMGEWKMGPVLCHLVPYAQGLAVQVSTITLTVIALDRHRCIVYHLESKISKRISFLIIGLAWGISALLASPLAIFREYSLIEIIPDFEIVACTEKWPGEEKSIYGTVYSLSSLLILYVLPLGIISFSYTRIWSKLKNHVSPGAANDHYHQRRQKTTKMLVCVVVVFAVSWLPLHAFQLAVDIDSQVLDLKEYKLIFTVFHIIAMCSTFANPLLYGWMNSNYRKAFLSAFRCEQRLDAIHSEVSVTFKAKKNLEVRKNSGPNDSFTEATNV
The data set can be described thus: hNPY2R CreLuc assay in 0.5% and 100% plasma (HEK-293 CRE-luciferase reporter cells). Type of data set: cell-based. The note with it: HEK-293 reporter cells.

The target in a further data set is T3, hGIPR (Homo sapiens, UniProt P48546).
T3 construct: expressed in transfected cells; host or cells: CHO CRE-luciferase reporter cells
T3 sequence (P48546 22-466): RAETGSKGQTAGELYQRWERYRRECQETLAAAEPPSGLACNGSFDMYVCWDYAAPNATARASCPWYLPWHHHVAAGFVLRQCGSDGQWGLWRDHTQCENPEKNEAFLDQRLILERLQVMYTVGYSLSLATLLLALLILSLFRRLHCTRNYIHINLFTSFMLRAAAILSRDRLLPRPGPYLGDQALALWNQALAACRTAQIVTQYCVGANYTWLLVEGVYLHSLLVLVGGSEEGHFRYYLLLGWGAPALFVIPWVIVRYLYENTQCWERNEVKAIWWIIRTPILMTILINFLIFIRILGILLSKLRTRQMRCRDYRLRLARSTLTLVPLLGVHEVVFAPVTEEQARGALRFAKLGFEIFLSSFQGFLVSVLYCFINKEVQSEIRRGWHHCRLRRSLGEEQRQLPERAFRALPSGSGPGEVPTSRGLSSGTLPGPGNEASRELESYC
In words: hGIPR CreLuc assay in 0.5% and 100% plasma (CHO CRE-luciferase reporter cells). Conditions: 0.5% human plasma, read-out: hGIPR 0.5% hP. The data set is classed as cell-based.

Molecules are shown by their SMILES. Where two headings read alike, the source gives them in different places.

T1 sequence (P43220 24-463): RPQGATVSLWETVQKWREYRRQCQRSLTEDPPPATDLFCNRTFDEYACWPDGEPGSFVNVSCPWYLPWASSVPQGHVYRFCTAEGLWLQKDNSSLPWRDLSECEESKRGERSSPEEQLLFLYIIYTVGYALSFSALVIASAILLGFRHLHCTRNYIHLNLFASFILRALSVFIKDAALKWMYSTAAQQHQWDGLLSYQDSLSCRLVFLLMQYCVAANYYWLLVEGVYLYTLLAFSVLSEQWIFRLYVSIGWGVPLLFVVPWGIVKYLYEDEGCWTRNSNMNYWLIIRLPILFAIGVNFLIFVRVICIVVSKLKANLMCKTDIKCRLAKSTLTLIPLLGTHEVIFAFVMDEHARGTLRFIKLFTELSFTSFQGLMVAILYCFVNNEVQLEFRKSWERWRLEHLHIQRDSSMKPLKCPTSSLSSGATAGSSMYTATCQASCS

The term solubility denotes the dissolved amount per volume that the medium holds. On to `CC[C@H](C)[C@H](NC(=O)[C@H](CC(C)C)NC(=O)[C@H](Cc1c[nH]cn1)NC(=O)[C@H](CCCNC(=N)N)NC(=O)[C@@H](NC(=O)[C@H](Cc1ccccc1)NC(=O)[C@H](C)NC(=O)C(C)(C)NC(=O)[C@H](CCC(N)=O)NC(=O)[C@H](C)NC(=O)[C@H](CCC(N)=O)NC(=O)[C@H](CCCCN)NC(=O)[C@H](CCC(=O)O)NC(=O)[C@H](CC(C)C)NC(=O)C(C)(C)NC(=O)[C@@H](NC(=O)[C@H](CO)NC(=O)[C@H](Cc1ccc(O)cc1)NC(=O)[C@H](CC(=O)O)NC(=O)[C@H](CO)NC(=O)[C@@H](NC(=O)[C@H](Cc1ccccc1)NC(=O)[C@@H](NC(=O)CNC(=O)[C@H](CCC(=O)O)NC(=O)C(C)(C)NC(=O)[C@@H](N)Cc1ccc(O)cc1)[C@@H](C)O)[C@@H](C)O)[C@@H](C)CC)C(C)C)C(=O)N[C@@H](CC(N)=O)C(=O)N[C@@H](CCCCNC(=O)COCCOCCNC(=O)CC[C@H](NC(=O)CC[C@H](NC(=O)CC[C@H](NC(=O)CC[C@H](NC(=O)CC[C@H](NC(=O)CC[C@H](NC(=O)CCCCCCCCCCCCCCCCC(=O)O)C(=O)O)C(=O)O)C(=O)O)C(=O)O)C(=O)O)C(=O)O)C(=O)NC(C)(C)C(=O)N[C@H](C(=O)N[C@@H](CCCNC(=N)N)C(=O)N[C@@H](CCC(N)=O)C(=O)N[C@@H](CCCNC(=N)N)C(=O)N[C@@H](Cc1ccc(O)cc1)C(N)=O)[C@@H](C)O` [Compound 47, Y-Aib-E-G-T-F-T-S-D-Y-S-I-Aib-L-E-K-Q-A-Q-Aib-A-F-V-R-H-L-I-N-K(1,3)-Aib-T-R-Q-R-Y-NH2.C18DA-gGlu-gGlu-gGlu-gGlu-gGlu-gGlu-OEG(1,2)], for which the EC50 was 0.8 nM on hGLP1R; 19.9 nM on hNPY2R (0.5% human plasma, read-out: hNPY2R 0.5% hP); 0.3 nM at hGIPR. Besides, the solubility at 2 h in data set [1] was 10000 µg/mL.

As to `CC[C@H](C)[C@H](NC(=O)[C@H](CC(C)C)NC(=O)[C@H](CCC(N)=O)NC(=O)[C@H](CCCNC(=N)N)NC(=O)[C@@H](NC(=O)[C@H](Cc1ccccc1)NC(=O)[C@H](C)NC(=O)C(C)(C)NC(=O)[C@H](CCC(N)=O)NC(=O)[C@H](C)NC(=O)[C@H](CCC(N)=O)NC(=O)[C@H](CCCCN)NC(=O)[C@H](CCC(=O)O)NC(=O)[C@H](CC(C)C)NC(=O)C(C)(C)NC(=O)[C@@H](NC(=O)[C@H](CO)NC(=O)[C@H](Cc1ccc(O)cc1)NC(=O)[C@H](CC(=O)O)NC(=O)[C@H](CO)NC(=O)[C@@H](NC(=O)[C@H](Cc1ccccc1)NC(=O)[C@@H](NC(=O)CNC(=O)[C@H](CCC(=O)O)NC(=O)C(C)(C)NC(=O)[C@@H](N)Cc1ccc(O)cc1)[C@@H](C)O)[C@@H](C)O)[C@@H](C)CC)C(C)C)C(=O)N[C@@H](CC(N)=O)C(=O)N[C@@H](CCCCNC(=O)CC[C@H](NC(=O)CC[C@H](NC(=O)CC[C@H](NC(=O)CC[C@H](NC(=O)CC[C@H](NC(=O)CCCCCCCCCCCCCCCCC(=O)O)C(=O)O)C(=O)O)C(=O)O)C(=O)O)C(=O)O)C(=O)NC(C)(C)C(=O)N[C@H](C(=O)N[C@@H](CCCNC(=N)N)C(=O)N[C@@H](CCC(N)=O)C(=O)N[C@@H](CCCNC(=N)N)C(=O)N[C@@H](Cc1ccc(O)cc1)C(N)=O)[C@@H](C)O` [Compound 50, Y-Aib-E-G-T-F-T-S-D-Y-S-I-Aib-L-E-K-Q-A-Q-Aib-A-F-V-R-Q-L-I-N-K(1,3)-Aib-T-R-Q-R-Y-NH2.C18DA-gGlu-gGlu-gGlu-gGlu-gGlu(1,2)], the EC50 at hGLP1R worked out at 0.7 nM; on hNPY2R (100% human plasma, read-out: hNPY2R 100% hP) it was 523 nM; on hGIPR, 0.7 nM. Besides, in data set [1], the solubility at 2 h was 4500 µg/mL.
